From ChEMBL document CHEMBL6153051, “Synthesis, biological evaluation and validation of IMB-881 derivatives as anti-Gram-negative bacterial agents” (Bioorg Med Chem, 2025)
≈ marks a conversion by molar mass, not a printed value.

Columns and labels:
Acinetobacter baumannii [1] = test: Antibacterial activity against Acinetobacter baumannii ATCC 19606 assessed as bacterial growth inhibition in presence of CAMHB medium by broth microdilution method; assay type: functional
[2] = Cytotoxicity against green monkey Vero cells incubated for 48 hrs by CCK-8 assay; assay type: toxicity, cell-based; conditions: green monkey (Chlorocebus sabaeus)
Pseudomonas aeruginosa = test: Antibacterial activity against Pseudomonas aeruginosa PAO1 assessed as bacterial growth inhibition in presence of CAMHB medium by broth microdilution method; assay type: functional
[3] = Cytotoxicity against dog MDCK cells incubated for 48 hrs by CCK-8 assay; assay type: toxicity, cell-based; conditions: dog (Canis lupus familiaris)
Escherichia coli [4] = test: Antibacterial activity against Escherichia coli ATCC 25922 assessed as bacterial growth inhibition in presence of CAMHB medium by broth microdilution method; assay type: functional
Klebsiella pneumoniae = test: Antibacterial activity against Klebsiella pneumoniae ATCC […] assessed as bacterial growth inhibition in presence of CAMHB medium by broth microdilution method; assay type: functional
Escherichia coli [5] = test: Antibacterial activity against multi-drug resistant Escherichia coli 2 clinical isolate assessed as bacterial growth inhibition in presence of CAMHB medium by broth microdilution method; assay type: functional
Acinetobacter baumannii [6] = test: Antibacterial activity against multi-drug resistant Acinetobacter baumannii 2 clinical isolate assessed as bacterial growth inhibition in presence of CAMHB medium by broth microdilution method; assay type: functional
Escherichia coli [7] = test: Antibacterial activity against multi-drug resistant Escherichia coli 4 clinical isolate assessed as bacterial growth inhibition in presence of CAMHB medium by broth microdilution method; assay type: functional
Acinetobacter baumannii [8] = test: Antibacterial activity against multi-drug resistant Acinetobacter baumannii 5 clinical isolate assessed as bacterial growth inhibition in presence of CAMHB medium by broth microdilution method; assay type: functional
Escherichia coli [9] = test: Antibacterial activity against multi-drug resistant Escherichia coli 3 clinical isolate assessed as bacterial growth inhibition in presence of CAMHB medium by broth microdilution method; assay type: functional
Escherichia coli [10] = test: Antibacterial activity against multi-drug resistant Escherichia coli 5 clinical isolate assessed as bacterial growth inhibition in presence of CAMHB medium by broth microdilution method; assay type: functional
Escherichia coli [11] = test: Antibacterial activity against ESBL(+) producing Escherichia coli ATCC 35218 assessed as bacterial growth inhibition in presence of CAMHB medium by broth microdilution method; assay type: functional
Escherichia coli [12] = test: Antibacterial activity against multi-drug resistant Escherichia coli 1 clinical isolate assessed as bacterial growth inhibition in presence of CAMHB medium by broth microdilution method; assay type: functional
Acinetobacter baumannii [13] = test: Antibacterial activity against multi-drug resistant Acinetobacter baumannii 4 clinical isolate assessed as bacterial growth inhibition in presence of CAMHB medium by broth microdilution method; assay type: functional
Acinetobacter baumannii [14] = test: Antibacterial activity against multi-drug resistant Acinetobacter baumannii 1 clinical isolate assessed as bacterial growth inhibition in presence of CAMHB medium by broth microdilution method; assay type: functional
Acinetobacter baumannii [15] = test: Antibacterial activity against multi-drug resistant Acinetobacter baumannii 3 clinical isolate assessed as bacterial growth inhibition in presence of CAMHB medium by broth microdilution method; assay type: functional

| Compound | MIC (Acinetobacter baumannii [1]) [µg/mL] | MIC (Pseudomonas aeruginosa) [µg/mL] | MIC (Escherichia coli [4]) [µg/mL] | MIC (Klebsiella pneumoniae) [µg/mL] | IC50 at 48 h [2] [µg/mL] | IC50 at 48 h [3] [µg/mL] | other results |
| --- | --- | --- | --- | --- | --- | --- | --- |
| Cc1ccc(CCN2COc3c(cc(Br)c4cccnc34)C2)cc1 | – | – | 50 | – | – | – | – |
| Fc1cc2c(c3ncccc13)OCN(CCc1cccc(Br)c1)C2 | 6.25 | 100 | 6.25 | 50 | > 50 | 32 (≈ 82.5 µM) | MIC (Escherichia coli [5]): 50 µg/mL; MIC (Acinetobacter baumannii [6]): 25 µg/mL; MIC (Escherichia coli [7]): 50 µg/mL; MIC (Acinetobacter baumannii [8]): 12.5 µg/mL; MIC (Escherichia coli [9]): 50 µg/mL; MIC (Escherichia coli [10]): 50 µg/mL; MIC (Escherichia coli [11]): 25 µg/mL; MIC (Escherichia coli [12]): 50 µg/mL; MIC (Acinetobacter baumannii [13]): 12.5 µg/mL; MIC (Acinetobacter baumannii [14]): 250 µg/mL; MIC (Acinetobacter baumannii [15]): 25 µg/mL |
| Fc1cc2c(c3ncccc13)OCN(CCc1ccc(Cl)cc1)C2 | 25 | 100 | 6.25 | 50 | > 50 | 29.2 (≈ 85.2 µM) | MIC (Escherichia coli [5]): 50 µg/mL; MIC (Acinetobacter baumannii [6]): 50 µg/mL; MIC (Escherichia coli [7]): 50 µg/mL; MIC (Acinetobacter baumannii [8]): 100 µg/mL; MIC (Escherichia coli [9]): 50 µg/mL; MIC (Escherichia coli [10]): 50 µg/mL; MIC (Escherichia coli [11]): 25 µg/mL; MIC (Escherichia coli [12]): 50 µg/mL; MIC (Acinetobacter baumannii [13]): 100 µg/mL; MIC (Acinetobacter baumannii [14]): 100 µg/mL; MIC (Acinetobacter baumannii [15]): 100 µg/mL |
| Fc1cc2c(c3ncccc13)OCN(CCc1ccc(Br)cc1)C2 | 3.12 | 100 | 6.25 | 100 | > 50 | 44.9 (≈ 116 µM) | MIC (Escherichia coli [5]): 50 µg/mL; MIC (Acinetobacter baumannii [6]): 3.12 µg/mL; MIC (Escherichia coli [7]): 50 µg/mL; MIC (Acinetobacter baumannii [8]): 6.25 µg/mL; MIC (Escherichia coli [9]): 50 µg/mL; MIC (Escherichia coli [10]): 50 µg/mL; MIC (Escherichia coli [11]): 25 µg/mL; MIC (Escherichia coli [12]): 50 µg/mL; MIC (Acinetobacter baumannii [13]): 25 µg/mL; MIC (Acinetobacter baumannii [14]): 12.5 µg/mL; MIC (Acinetobacter baumannii [15]): 12.5 µg/mL |
| Clc1ccc(CN2COc3c(cc(Br)c4cccnc34)C2)cc1 | – | – | > 100 | – | – | – | – |
| Brc1cc2c(c3ncccc13)OCN(Cc1ccccc1)C2 | – | – | 25 | – | – | – | – |
| FC(F)(F)Oc1ccc(CN2COc3c(cc(Cl)c4cccnc34)C2)cc1 | – | – | 50 | – | – | – | – |
| Cc1ccc(CCN2COc3c(cc(Cl)c4cccnc34)C2)cc1 | – | – | 50 | – | – | – | – |
| Fc1cc(CN2COc3c(cc(Br)c4cccnc34)C2)cc(F)c1F | – | – | 25 | – | – | – | – |
| Clc1cc2c(c3ncccc13)OCN(CCc1cccc(Br)c1)C2 | – | – | > 100 | – | – | – | – |
| FC(F)(F)Oc1ccc(CN2COc3c(cc(Br)c4cccnc34)C2)cc1 | – | – | > 100 | – | – | – | – |
| Cc1ccc(CCN2COc3c(cc(F)c4cccnc34)C2)cc1 | – | – | 25 | – | – | – | – |
| Brc1cc2c(c3ncccc13)OCN(CCCc1ccccc1)C2 | – | – | 50 | – | – | – | – |
| Brc1cc2c(c3ncccc13)OCN(CCc1ccccc1)C2 | – | – | 25 | – | – | – | – |
| Fc1ccc(CN2COc3c(cc(F)c4cccnc34)C2)c(F)c1 | – | – | 25 | – | – | – | – |
| Fc1cc2c(c3ncccc13)OCN(Cc1ccccc1)C2 | – | – | 25 | – | – | – | – |

| Compound | MIC (Acinetobacter baumannii [1]) [µg/mL] | MIC (Pseudomonas aeruginosa) [µg/mL] | MIC (Escherichia coli [4]) [µg/mL] | MIC (Klebsiella pneumoniae) [µg/mL] | IC50 at 48 h [2] [µg/mL] | IC50 at 48 h [3] [µg/mL] | other results |
| --- | --- | --- | --- | --- | --- | --- | --- |
| Brc1cc2c(c3ncccc13)OCN(CCOc1ccccc1)C2 | – | – | 25 | – | – | – | – |
| COc1ccc(CCN2COc3c(cc(Cl)c4cccnc34)C2)cc1OC | – | – | 25 | – | – | – | – |
| Fc1ccc(CCN2COc3c(cc(Br)c4cccnc34)C2)cc1 | – | – | 25 | – | – | – | – |
| Clc1ccc(OCCN2COc3c(cc(Br)c4cccnc34)C2)cc1 | – | – | 50 | – | – | – | – |
| Oc1ccc(CCN2COc3c(cc(F)c4cccnc34)C2)cc1 | – | – | > 100 | – | – | – | – |
| FC(F)(F)c1ccc(CN2COc3c(cc(Br)c4cccnc34)C2)cc1 | – | – | 50 | – | – | – | – |
| Brc1ccc(CCN2COc3c(cc(Br)c4cccnc34)C2)cc1 | – | – | 50 | – | – | – | – |
| Clc1cccc(CN2COc3c(cc(Br)c4cccnc34)C2)c1 | – | – | 25 | – | – | – | – |
| Fc1ccc(CN2COc3c(cc(Br)c4cccnc34)C2)c(F)c1 | – | – | 25 | – | – | – | – |
| Brc1cc2c(c3ncccc13)OCN(CCCCc1ccccc1)C2 | – | – | 25 | – | – | – | – |
| COc1ccc(CCN2COc3c(cc(Br)c4cccnc34)C2)cc1OC | – | – | > 100 | – | – | – | – |
| Fc1cc(CN2COc3c(cc(Cl)c4cccnc34)C2)cc(F)c1F | – | – | 25 | – | – | – | – |
| Clc1cc2c(c3ncccc13)OCN(CCOc1ccccc1)C2 | – | – | 25 | – | – | – | – |
| Fc1cc2c(c3ncccc13)OCN(Cc1ccc(OC(F)(F)F)cc1)C2 | – | – | 25 | – | – | – | – |
| Fc1cc(CN2COc3c(cc(F)c4cccnc34)C2)cc(F)c1F | – | – | 25 | – | – | – | – |

The remaining compounds from weak to strong by MIC (Escherichia coli [4]), led by results:

| MIC (Acinetobacter baumannii [1]) [µg/mL] | MIC (Pseudomonas aeruginosa) [µg/mL] | MIC (Escherichia coli [4]) [µg/mL] | MIC (Klebsiella pneumoniae) [µg/mL] | Compound | IC50 at 48 h [2] [µg/mL] | IC50 at 48 h [3] [µg/mL] | other results |
| --- | --- | --- | --- | --- | --- | --- | --- |
| – | – | 25 | – | Fc1cc2c(c3ncccc13)OCN(CCOc1ccccc1)C2 | – | – | – |
| – | – | 25 | – | Clc1ccc(OCCN2COc3c(cc(Cl)c4cccnc34)C2)cc1 | – | – | – |
| – | – | 25 | – | FC(F)(F)c1ccc(CN2COc3c(cc(Cl)c4cccnc34)C2)cc1 | – | – | – |
| 12.5 | 100 | 12.5 | 50 | Fc1cc2c(c3ncccc13)OCN(CCOc1ccc(Cl)cc1)C2 | > 50 | 22.3 (≈ 62 µM) | – |
| 6.25 | 100 | 12.5 | 50 | Fc1ccc(CCN2COc3c(cc(Cl)c4cccnc34)C2)cc1 | 40.1 (≈ 117 µM) | 17.8 (≈ 52.1 µM) | – |
| 6.12 | 100 | 12.5 | > 100 | Clc1ccc(CCN2COc3c(cc(Cl)c4cccnc34)C2)cc1 | > 50 | 39.7 (≈ 110 µM) | – |
| 3.12 | 100 | 12.5 | 100 | Clc1cc2c(c3ncccc13)OCN(CCCCc1ccccc1)C2 | > 50 | 33.8 (≈ 95.9 µM) | – |
| 12.5 | 100 | 12.5 | 100 | Fc1cc2c(c3ncccc13)OCN(Cc1ccc(C(F)(F)F)cc1)C2 | 46.1 (≈ 127 µM) | 7.93 (≈ 21.9 µM) | – |
| 6.25 | 100 | 12.5 | > 100 | Clc1cc2c(c3ncccc13)OCN(Cc1ccccc1)C2 | > 50 | 33.8 (≈ 109 µM) | – |
| 12.5 | 100 | 12.5 | 100 | Fc1ccc(CCN2COc3c(cc(F)c4cccnc34)C2)cc1 | 27.7 (≈ 84.8 µM) | 15.8 (≈ 48.3 µM) | – |
| 6.25 | 100 | 12.5 | > 100 | Clc1cc2c(c3ncccc13)OCN(CCc1ccc(Br)cc1)C2 | > 50 | 35.2 (≈ 87.3 µM) | – |
| 12.5 | 100 | 12.5 | 50 | Clc1cccc(CN2COc3c(cc(Cl)c4cccnc34)C2)c1 | > 50 | 23.9 (≈ 69.1 µM) | – |
| 6.25 | 100 | 6.25 | 50 | Fc1cc2c(c3ncccc13)OCN(CCc1ccccc1)C2 | 14.7 (≈ 47.8 µM) | 8.97 (≈ 29.1 µM) | – |
| 6.25 | 100 | 6.25 | > 100 | Fc1cc2c(c3ncccc13)OCN(CCCCc1ccccc1)C2 | 36.1 (≈ 107 µM) | 29.3 (≈ 87.1 µM) | – |
| 6.25 | 100 | 6.25 | 50 | Fc1cc2c(c3ncccc13)OCN(CCCc1ccccc1)C2 | 13.6 (≈ 42.1 µM) | 26 (≈ 80.5 µM) | – |
| 6.25 | 50 | 6.25 | 50 | Fc1cc2c(c3ncccc13)OCN(Cc1cccc(Cl)c1)C2 | 34 (≈ 103 µM) | 19 (≈ 57.7 µM) | – |
| 3.12 | 25 | 3.12 | 25 | Fc1cccc(CCN2COc3c(cc(F)c4cccnc34)C2)c1 | 21.3 (≈ 65.2 µM) | 29.4 (≈ 90.2 µM) | – |
